The CombiSolv-Exp solvation set (Vermeire and Green 2021)

Test: solvent given as SMILES

[HH]
Settings	solvation free energy, 298 K [kcal/mol]
in Brc1ccccc1	1.77
in C1CCNC1	1.62
in C1CCNCC1	1.63
in C1CCOC1	1.46
in C1COCCO1	1.76
in C=CCCCCCC	1.36
in C=CCCCCCCC=C	1.6
in CC1COC(=O)O1	2.04
in CC#N	1.45
in CC(=O)OCC(C)C	1.49
in CC(C)(C)O	1.49
in CC(C)=O	1.38
in CC(C)CC(C)(C)C	1.28
in CC(C)CCO	1.76
in CC(C)CO	1.53
in CC(C)N	1.3
in CC(C)O	1.45
in CCC(C)=O	1.45
in CCC(C)O	1.56
in CCCCC(CC)CO	1.64
in CCCCCC	1.24
in CCCCCCC	1.29
in CCCCCCCC	1.35
in CCCCCCCCCC	1.49
in CCCCCCCCCCCCO	1.9
in CCCCCCCCCCO	1.83
in CCCCCCCCCO	1.8
in CCCCCCO	1.61
in CCCCCO	1.64
in CCCCCOC(C)=O	1.91
in CCCCN(CCCC)CCCC	1.53
in CCCCNCCCC	1.48
in CCCCO	1.56
in CCCCOC(C)=O	1.5
in CCCCOCCCC	1.42
in CCCCOCCO	1.67
in CCCN	1.35
in CCCO	1.52
in CCN	1.24
in CCN(CC)CC	1.33
in CCO	1.47
in CCOC(C)=O	1.46
in CCOCC	1.15
in CCOCCO	1.7
in CN1CCCC1	1.38
in CN1CCCC1=O	1.98
in CN(C)C=O	1.84
in CN(C)CCCN	1.63
in CO	1.35
in COC(C)=O	1.42
in COCCO	1.84
in Cc1cccc(C)c1	1.49
in Cc1ccccc1	1.62
in ClC(Cl)(Cl)Cl	1.51
in ClC(Cl)Cl	1.61
in ClCCCl	1.72
in ClCCl	1.57
in Clc1ccccc1	1.65
in NCCCN	2.05
in NCCN	2.15
in O=C1CCCC1	1.72
in O=C1CCCCC1	1.75
in OCCO	2.38
in c1ccccc1	1.58

Cc1ccc(N(O)C(=O)COc2ccccc2)cc1
Settings	solvation free energy, 298 K [kcal/mol]
in O	-12.8

CN1C2CCC1CC(OC(=O)C(O)c1ccccc1)C2 (stereo unspecified)
Settings	solvation free energy, 298 K [kcal/mol]
in O	-13.8
